Target: T1, hTDO2 (Homo sapiens, UniProt P48775)
T1 construct: endogenous in cells; host or cells: A172 human brain glioblastoma cells (ATCC CRL-1620)
Assay: Cellular assay for TDO2 activity determination in A172 cells
Assay type: cell-based
Settings: human glioblastoma A172 cells naturally expressing hTDO2; overnight incubation; kynurenine by absorbance at 480 nm
Experimental: The compounds of formula I inhibit the activity of human TDO2 in cells that constitutively express TDO2, such as A172 cells. A172 is a cell line derived from human brain glioblastoma cells. The cells are available from the American Type Culture Collection (ATCC®) as CRL-1620™.
The assay (adapted from Pilotte L et al., Proc Natl Acad Sci USA, 2012, 109(7), 2497-502) was performed in 96-well flat bottom plates seeded with human glioblastoma A172 cells, naturally expressing hTDO2 (prepared as described in Tilman et al., Mol Cancer, 2007, 17(6), 80), at a concentration of 1.25×10^4 cells/well in a final volume of 200 μL. To determine TDO, the cells were incubated overnight at 37° C. at 5% CO2 in IMDM (Invitrogen) supplemented with 2% FBS and 2% penicillin/streptomycin in the presence of the compounds of the present invention, at different concentrations.
The plates were then centrifuged 5 min at 1000 rpm, and 100 μL of the supernatant were collected in a conical plate, 30 μL of TCA 30% were added and a further centrifuged at 3000×g for 10 minutes. 100 μL of the supernatant were collected in a flat bottomed plate and 100 μL of 2% (w/v) 4-(dimethylamino)-benzaldehyde in acetic acid and incubated for 5 min at room temperature. Kynurenine concentrations were determined by measuring the absorbance at 480 nm. A standard curve was made with pure kynurenine. The TDO activity was measured as described above using ten serial concentrations of the compounds of the present invention. Data were fitted using the Prism™ software (GraphPad Software, Inc.) using standard parameters.
The biological activity of representative compounds in human brain glioblastoma cells as determined in the above-referenced assay is summarized in the following table: […]

T1 sequence (P48775 whole entry): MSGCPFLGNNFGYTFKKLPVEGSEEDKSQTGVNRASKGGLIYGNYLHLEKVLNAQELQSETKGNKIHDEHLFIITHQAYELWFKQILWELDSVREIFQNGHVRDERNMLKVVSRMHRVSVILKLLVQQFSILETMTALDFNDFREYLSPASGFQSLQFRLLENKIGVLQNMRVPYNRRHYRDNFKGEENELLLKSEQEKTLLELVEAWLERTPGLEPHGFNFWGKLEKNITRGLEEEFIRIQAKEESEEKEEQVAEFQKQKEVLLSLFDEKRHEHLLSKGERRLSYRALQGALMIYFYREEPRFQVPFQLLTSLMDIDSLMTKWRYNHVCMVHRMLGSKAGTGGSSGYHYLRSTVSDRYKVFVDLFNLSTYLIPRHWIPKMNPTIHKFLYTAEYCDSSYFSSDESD

An IC50 of 91 nM was found for `CC1c2cc(-c3c[nH]c4cc(F)ccc34)ccc2S(=O)(=O)N1CCC(=O)N1CCNCC1` (single isomer, unassigned; (+)) [Example 49, (+)-3-(5-(6-fluoro-1H-indol-3-yl)-3-methyl-1,1-dioxido-benzo [d]isothiazol-2(3H)-yl)-1-(piperazin-1-yl)propan-1-one] in this work.

An IC50 of 563 nM was found for `CC1c2cc(-c3c[nH]c4cc(F)ccc34)ccc2S(=O)(=O)N1C1CCNCC1` (single isomer, unassigned; (+)) [Example 52, (+)-5-(6-fluoro-1H-indol-3-yl)-3-methyl-2-(piperidin-4-yl)-2,3-dihydrobenzo[d]isothiazole 1,1-dioxide] in this work.

An IC50 of 70 nM was found for `CC1c2cc(-c3c[nH]c4cc(F)ccc34)ccc2S(=O)(=O)N1CCS(C)(=O)=O` (single isomer, unassigned; (+)) [Example 53, (+)-5-(6-fluoro-1H-indol-3-yl)-3-methyl-2-(2-(methylsulfonyl)ethyl)-2,3-dihydrobenzo[d]isothiazole 1,1-dioxide] in this work.

An IC50 of 76 nM was found for `CC1c2cc(-c3c[nH]c4cc(F)ccc34)ccc2S(=O)(=O)N1CC[S+](C)[O-]` (single isomer, unassigned; (+)) [Example 55, (+)-5-(6-fluoro-1H-indol-3-yl)-3-methyl-2-(2-(methylsulfinyl)ethyl)-2,3-dihydrobenzo[d]isothiazole 1,1-dioxide] in this work.

An IC50 of 267 nM was found for `CC1c2cc(-c3c[nH]c4cc(F)ccc34)ccc2S(=O)(=O)N1CC[S+](C)[O-]` (single isomer, unassigned; (+)) [Example 58, (+)-5-(6-fluoro-1H-indol-3-yl)-3-methyl-2-(2-(methylsulfinyl)ethyl)-2,3-dihydrobenzo[d]isothiazole 1,1-dioxide] in this work.

An IC50 of 133 nM was found for `CNS(=O)(=O)CCN1C(C)c2cc(-c3c[nH]c4cc(F)ccc34)ccc2S1(=O)=O` (single isomer, unassigned; (+)) [Example 60, (+)-2-(5-(6-fluoro-1H-indol-3-yl)-3-methyl-1,1-dioxidobenzo[d]isothiazol-2(3H)-yl)-N-methylethane-1-sulfonamide] in this work.

An IC50 of 309 nM was found for `CC1c2cc(-c3c[nH]c4cc(F)ccc34)ccc2S(=O)(=O)N1CCS(N)(=O)=O` (single isomer, unassigned; (+)) [Example 61, (+)-2-(5-(6-fluoro-1H-indol-3-yl)-3-methyl-1,1-dioxidobenzo[d]isothiazol-2(3H)-yl)ethane-1-sulfonamide] in this work.

An IC50 of 70 nM was found for `CC1c2cc(-c3c[nH]c4cc(F)ccc34)ccc2S(=O)(=O)N1CCO` (single isomer, unassigned; (+)) [Example 63, (+)-5-(6-fluoro-1H-indol-3-yl)-2-(2-hydroxyethyl)-3-methyl-2,3-dihydrobenzo[d]isothiazole 1,1-dioxide] in this work.

An IC50 of 244 nM was found for `CC1c2cc(-c3c[nH]c4cc(F)ccc34)ccc2S(=O)(=O)N1CCN1CCNCC1=O` (single isomer, unassigned; (+)) [Example 66, (+)1-(2-(5-(6-fluoro-1H-indol-3-yl)-3-methyl-1,1-dioxidobenzo[d]isothiazol-2(3H)-yl)ethyl)piperazin-2-one] in this work.

An IC50 of 9500 nM was found for `Cc1cc(O)n(CCN2C(C)c3cc(-c4c[nH]c5cc(F)ccc45)ccc3S2(=O)=O)n1` (single isomer, unassigned; (+)) [Example 67, (+)-5-(6-fluoro-1H-indol-3-yl)-2-(2-(5-hydroxy-3-methyl-1H-pyrazol-1-yl)ethyl)-3-methyl-2,3-dihydrobenzo[d]isothiazole 1,1-dioxide] in this work.

An IC50 of 264 nM was found for `CC1c2cc(-c3c[nH]c4cc(F)ccc34)ccc2S(=O)(=O)N1CCN1CCOC1=O` (single isomer, unassigned; (+)) [Example 69, (+)-3-(2-(5-(6-fluoro-1H-indol-3-yl)-3-methyl-1,1-dioxidobenzo[d]isothiazol-2(3H)-yl)ethyl)oxazolidin-2-one] in this work.

An IC50 of 342 nM was found for `CC(=O)N1CCC(N2C(C)c3cc(-c4c[nH]c5cc(F)ccc45)ccc3S2(=O)=O)CC1` (single isomer, unassigned; (+)) [Example 71, (+)-1-(4-(5-(6-fluoro-1H-indol-3-yl)-3-methyl-1,1-dioxidobenzo[d]isothiazol-2(3H)-yl)piperidin-1-yl)ethanone] in this work.

An IC50 of 246 nM was found for `CC(=O)N1CCC(N2C(C)c3cc(-c4c[nH]c5cc(F)ccc45)ccc3S2(=O)=O)C1` (single isomer, unassigned; (+)) [Example 73, (+)-1-(3-(5-(6-fluoro-1H-indol-3-yl)-3-methyl-1,1-dioxidobenzo[d]isothiazol-2(3H)-yl)pyrrolidin-1-yl)ethanone] in this work.

An IC50 of 254 nM was found for `CC(=O)N1CCC(N2C(C)c3cc(-c4c[nH]c5cc(F)ccc45)ccc3S2(=O)=O)C1` (single isomer, unassigned; (+)) [Example 74, (+)-1-(3-(5-(6-fluoro-1H-indol-3-yl)-3-methyl-1,1-dioxidobenzo[d]isothiazol-2(3H)-yl)pyrrolidin-1-yl)ethanone] in this work.

An IC50 of 174 nM was found for `CC1c2cc(-c3c[nH]c4cc(F)ccc34)ccc2S(=O)(=O)N1CC1CCNCC1` (single isomer, unassigned; (+)) [Example 78, (+)-5-(6-fluoro-1H-indol-3-yl)-3-methyl-2-(piperidin-4-ylmethyl)-2,3-dihydrobenzo[d]isothiazole 1,1-dioxide] in this work.

An IC50 of 56 nM was found for `CC1c2cc(-c3c[nH]c4cc(F)ccc34)ccc2S(=O)(=O)N1CC1CCN(C)CC1` (single isomer, unassigned; (+)) [Example 80, (+)-5-(6-fluoro-1H-indol-3-yl)-3-methyl-2-((1-methylpiperidin-4-yl)methyl)-2,3-dihydrobenzo[d]isothiazole 1,1-dioxide] in this work.

An IC50 of 473 nM was found for `CC1c2cc(-c3c[nH]c4cc(F)ccc34)ccc2S(=O)(=O)N1C[C@]1(C)CCC(=O)N1` (single isomer, unassigned; (+)) [Example 81] in this work.

An IC50 of 61 nM was found for `CC1c2cc(-c3c[nH]c4cc(F)ccc34)ccc2S(=O)(=O)N1C[C@]1(C)CCC(=O)N1` (single isomer, unassigned; (+)) [Example 82] in this work.

An IC50 of 97 nM was found for `CC1c2cc(-c3c[nH]c4cc(F)ccc34)ccc2S(=O)(=O)N1Cc1ncn(C)n1` (single isomer, unassigned; (+)) [Example 86, (+)-5-(6-fluoro-1H-indol-3-yl)-3-methyl-2-((1-methyl-1H-1,2,4-triazol-3-yl)methyl)-2,3-dihydrobenzo[d]isothiazole 1,1-dioxide] in this work.

An IC50 of 58 nM was found for `CC1c2cc(-c3c[nH]c4cc(F)ccc34)ccc2S(=O)(=O)N1CC1(C)COC(=O)N1` (single isomer, unassigned; (+)) [Example 89, (+)-4-((5-(6-fluoro-1H-indol-3-yl)-3-methyl-1,1-dioxidobenzo[d]isothiazol-2(3H)-yl)methyl)-4-methyloxazolidin-2-one] in this work.

An IC50 of 358 nM was found for `CC1c2cc(-c3c[nH]c4cc(F)ccc34)ccc2S(=O)(=O)N1CC1(C)COC(=O)N1` (single isomer, unassigned; (+)) [Example 90, (+)-4-((5-(6-fluoro-1H-indol-3-yl)-3-methyl-1,1-dioxidobenzo[d]isothiazol-2(3H)-yl)methyl)-4-methyloxazolidin-2-one] in this work.

An IC50 of 27 nM was found for `CC1c2cc(-c3c[nH]c4cc(F)ccc34)ccc2S(=O)(=O)N1C1CNC1` (single isomer, unassigned; (+)) [Example 92, (+)-2-(azetidin-3-yl)-5-(6-fluoro-1H-indol-3-yl)-3-methyl-2,3-dihydrobenzo[d]isothiazole 1,1-dioxide] in this work.

An IC50 of 39 nM was found for `CC1c2cc(-c3c[nH]c4cc(F)ccc34)ccc2S(=O)(=O)N1C[C@@H](O)CO` (single isomer, unassigned; (+)) [Example 94] in this work.

An IC50 of 30 nM was found for `CC1c2cc(-c3c[nH]c4cc(F)ccc34)ccc2S(=O)(=O)N1C[C@H](O)CO` (single isomer, unassigned; (+)) [Example 96] in this work.

An IC50 of 33 nM was found for `CNC(=O)C(O)CN1C(C)c2cc(-c3c[nH]c4cc(F)ccc34)ccc2S1(=O)=O` (single isomer, unassigned; (+)) [Example 97, (+)-3-(5-(6-fluoro-1H-indol-3-yl)-3-methyl-1,1-dioxidobenzo[d]isothiazol-2(3H)-yl)-2-hydroxy-N-methylpropanamide] in this work.

An IC50 of 180 nM was found for `CNC(=O)C(O)CN1C(C)c2cc(-c3c[nH]c4cc(F)ccc34)ccc2S1(=O)=O` (single isomer, unassigned; (+)) [Example 99, (+)-3-(5-(6-fluoro-1H-indol-3-yl)-3-methyl-1,1-dioxidobenzo[d]isothiazol-2(3H)-yl)-2-hydroxy-N-methylpropanamide] in this work.

An IC50 of 114 nM was found for `CNC(=O)C(N)CN1C(C)c2cc(-c3c[nH]c4cc(F)ccc34)ccc2S1(=O)=O` (single isomer, unassigned; (+)) [Example 102, (+)-2-amino-3-(5-(6-fluoro-1H-indol-3-yl)-3-methyl-1,1-dioxidobenzo[d]isothiazol-2(3H)-yl)-N-methylpropanamide] in this work.
